# Experimental data as given in US7304068B2, “Substituted pyrazolo [1,5-A] pyrimidinyls and pharmaceutical uses therefore” (SmithKline Beecham Corporation, priority 2002, dated 2007).
# Test system: HSV-1
# Experiment: HSV-1 replication in infected Vero 76 cells, DNA hybridization capture assay
# Format: cell-based, herpes simplex virus 1
# Settings: Human alphaherpesvirus 1; HSV-1 infected Vero 76 cells (MOI=0.001), 40-48 hours incubation, HSV DNA detected by hybridization/chemiluminescence
# Protocol: Vero 76 cells were maintained in MEM with Earle's salts, L-glutamine, 8% FBS (Hyclone, A-1111-L) and 100 units/mL Penicillin-100 μg/mL Streptomycin. For assay conditions, FBS was reduced to 2%. Cells are seeded into 96-well tissue culture plates at a density of 5×10^4 cells/well after being incubated for 45 min at 37° C. in the presence of HSV-1 or HSV-2 (MOI=0.001). Test compounds are added to the wells and the plates are incubated at 37° C. for 40-48 hours. Cell lysates are prepared as follows: media was removed and replaced with 150 μL/well 0.2 N NaOH with 1% igepal CA 630 or NP-40. Plates were incubated up to 14 days at room temperature in a humidified chamber to prevent evaporation.
# For the detection probe, a gel-purified, digoxigenin-labeled, 710-bp PCR fragment of the HSV UL-15 sequence was utilized. PCR conditions included 0.5 μM primers, 180 μM dTTP, 20 μM dUTP-digoxigenin (Boehringer Mannheim 1558706), 200 μM each of dATP, dCTP, and dGTP, 1× PCR Buffer II (Perkin Elmer), 2.5 mM MgCl2, 0.025 units/μL of AmpliTaq Gold polymerase (Perkin Elmer), and 5 ng of gel-purified HSV DNA per 100 μL Extension conditions were 10 min at 95° C., followed by 30 cycles of 95° C. for 1 min, 55° C. for 30 sec, and 72° C. for 2 min. The amplification was completed with a 10-min incubation at 72° C. Primers were selected to amplify a 728 bp probe spanning a section of the HSV1 UL15 open reading frame (nucleotides 249-977). Single-stranded transcripts were purified with Promega M13 Wizard kits. The final product was mixed 1:1 with a mixture of 6 M GuSCN, 100 mM EDTA and 200 μg/mL herring sperm DNA and stored at 4° C.
# The capture DNA plasmid (HSV UL13 region in pUC) was linearized by cutting with Xba I, denatured for 15 min at 95° C. and diluted immediately into Reacti-Bind DNA Coating Solution (Pierce, 17250, diluted 1:1 with TE buffer, pH 8) at 1 ng/μL. 75 μL/well were added to Corning (#3922 or 9690) white 96-well plates and incubated at room temperature for at least 4 hrs before washing twice with 300 μL/well 0.2×SSC/0.05% Tween-20 (SSC/T buffer). The plates were then incubated overnight at room temperature with 150 μL/well 0.2 N NaOH, 1% IGEPAL and 10 μg/mL herring sperm DNA.
# Twenty-seven (27) μL of cell lysate was combined with 45 μL of hybridization solution (final concentration: 3M GuSCN, 50 mM EDTA, 100 μg/ml salmon sperm DNA, 5× Denhardt's solution, 0.25× APE, and 5 ng of the digoxigenin-labeled detection probe). APE is 1.5 M NH4-acetate, 0.15 M NH4H2 phosphate, and 5 mM EDTA adjusted to pH 6.0. Mineral oil (50 μL) was added to prevent evaporation. The hybridization plates were incubated at 95° C. for 10 minutes to denature the DNA, then incubated at 42° C. overnight. The wells were washed 6× with 300 μL/well SSC/T buffer then incubated with 75 μL/well anti-digoxigenin-HRP-conjugated antibody (Boehringer Mannheim 1207733, 1:5000 in TE) for 30 min at room temperature. The wells were washed 6× with 300 μL/well with PBS/0.05% Tween-20 before 75 μL/well SuperSignal LBA substrate (Pierce) was added. The plates were incubated at room temperature for 30 minutes and chemiluminescence was measured in a Wallac Victor reader.
# The following results were obtained for HSV-1.
row,SMILES,IC50 [nM]
1,"Fc1cc(-c2c(-c3ccccc3)nn3c(N4CCCC4)ccnc23)ccn1 [Example 1, 3-(2-Fluoropyridin-4-yl)-2-phenyl-7-pyrrolidin-1-ylpyrazolo[1,5-α]pyrimidine]",28000
2,"c1ccc(-c2nn3c(N4CCCC4)ccnc3c2-c2ccnc(NC3CCCC3)c2)cc1 [Example 2, N-Cyclopentyl-4(2-phenyl-7-pyrrolidin-1-ylpyrazolo[1,5-α]pyrimidin-3-yl)pyridin-2-amine]",800
3,"COc1ccc(-c2nn3c(NC4CCCC4)ccnc3c2-c2ccnc(NC3CCCC3)c2)cc1 [Example 4, N-Cyclopentyl-3-[2-(cyclopentylamino)-4-pyridinyl]-2-(4-methoxyphenyl)pyrazolo[1,5-α]pyrimidin-7-amine]",600
4,"COc1ccc(-c2nn3c(NC4CCCC4)ccnc3c2-c2ccnc(NC3CCCC3)n2)cc1 [Example 6, N-Cyclopentyl-3-[2-(cyclopentylamino)pyrimidin-4-yl]-2-(4-methoxyphenyl)pyrazolo[1,5-α]pyrimidin-7-amine]",2400

# Next, values leading:
row,IC50 [nM],SMILES
1,300,"c1ccc(-c2nn3c(NC4CCCC4)ccnc3c2-c2ccnc(NC3CCCC3)c2)cc1 [Example 3, N-Cyclopentyl-3-[2-(cyclopentylamino)pyridin-4-yl]-2-phenylpyrazolo[1,5-α]pyrimidin-7-amine]"
2,1200,"Fc1ccc(-c2nn3c(NC4CCCC4)ccnc3c2-c2ccnc(NC3CCCC3)c2)cc1 [Example 5, N-Cyclopentyl-3-[2-(cyclopentylamino)-4-pyridinyl]-2-(4-fluorophenyl)pyrazolo[1,5-α]pyrimidin-7-amine]"
